Columns and labels:
[1] = Mass balance study in humans using 14C-labelled pretomanid; type: in vivo; details: human, plasma, oral; 6% of the pretomanid therapeutic AUC0-24, 200 mg/day; read-out: Estimated human AUC0-24 of M50
[2] = tested on: CD-1(ICR) BR mice, bone marrow erythrocytes; test: Bone marrow micronucleus assay in mice; type: in vivo
Procedure: Groups of male CD-1®(ICR) BR mice were given single oral doses of vehicle (0.4% CMC), positive control article, or pretomanid at 125, 500 or 2000 mg/kg and then were euthanized approximately 24 or 48 hours later to harvest femoral bone marrow. Bone marrow was mounted on slides and stained with May-Grünwald solution and Giemsa. For each mouse, 500 red blood cells were examined to determine the ratio of immature red blood cells (polychromatophilic erythrocytes or PCEs) to mature red blood cells (normochromatophilic erythrocytes of NCEs) and 2000 PCEs were examined to determine the ratio of micronucleated PCEs (mnPCEs) to normal PCEs.
The mean PCE-to-NCE ratios in various groups were compared to reach conclusions about assay validity and effects on erythropoiesis. The mean mnPCE-to-PCE ratios in various groups were compared to reach conclusions about assay validity and clastogenicity. Comparisons were made using an analysis of variance on untransformed mnPCE-to-PCE ratios for each mouse and on untransformed PCE-to-NCE ratios when the variances were homogeneous. Ranked proportions were used for heterogeneous variances. […] Comparisons were made at the 5% probability level.

Compound | AUC(0-t) [1] | mnPCE-to-PCE ratio ([2]; any dose level (125, 500, 2000 mg/kg), 24 or 48 h) | Effect on erythropoiesis (PCE:NCE ratio) ([2]; single oral 125, 500 or 2000 mg/kg) | Clastogenic potential in vivo ([2]; single oral doses up to 2000 mg/kg)
O=[N+]([O-])c1cn2c(n1)OC[C@@H](O)C2 [M50] | ~3000 ng·h/mL |  |  | 
O=[N+]([O-])c1cn2c(n1)OC[C@@H](OCc1ccc(OC(F)(F)F)cc1)C2 [Pretomanid, (6S)-2-nitro-6-{[4-(trifluoromethoxy)benzyl]oxy}-6,7-dihydro-5H-imidazo[2,1-b][1,3]oxazine] |  | did not significantly increase | did not affect erythropoiesis | negative

Reference: publication PMC9411704, “Assessment of the Carcinogenic Potential of Pretomanid in Transgenic Tg.rasH2 Mice” (International Journal of Toxicology, 2022)
